Reference: PubChem BioAssay (NCI)
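Compound exposure: 48 hours, 5 concentrations, 96-well plates. The concentration for 50% growth inhibition is given as GI50. TGI marks complete inhibition of growth.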

Key:
Test in all cases: NCI anticancer screen, dose series, 48 h
KM12 colon = test system: KM12 colon
HCT-15 colon = test system: HCT-15 colon
U251 CNS = test system: U251 CNS
786-0 renal = test system: 786-0 renal
HOP-92 NSCLC = test system: HOP-92 NSCLC
HOP-62 NSCLC = test system: HOP-62 NSCLC
OVCAR-8 ovarian = test system: OVCAR-8 ovarian
HS 578T breast = test system: HS 578T breast
SK-MEL-2 melanoma = test system: SK-MEL-2 melanoma
A498 renal = test system: A498 renal

SMILES	GI50 (KM12 colon) [µM]	TGI (KM12 colon) [µM]	GI50 (HCT-15 colon) [µM]	TGI (HCT-15 colon) [µM]	GI50 (U251 CNS) [µM]	TGI (U251 CNS) [µM]	GI50 (786-0 renal) [µM]	TGI (786-0 renal) [µM]	GI50 (HOP-92 NSCLC) [µM]	TGI (HOP-92 NSCLC) [µM]	GI50 (HOP-62 NSCLC) [µM]	TGI (HOP-62 NSCLC) [µM]	GI50 (OVCAR-8 ovarian) [µM]	TGI (OVCAR-8 ovarian) [µM]	GI50 (HS 578T breast) [µM]	TGI (HS 578T breast) [µM]	GI50 (SK-MEL-2 melanoma) [µM]	TGI (SK-MEL-2 melanoma) [µM]	TGI (A498 renal) [µM]	GI50 (A498 renal) [µM]
Oc1ccccc1C=Nc1nc(SCc2ccccc2)nc2[nH]ncc12	37.5	> 100	> 100	> 100	46.4	> 100	89.4	> 100	12.4	71.1	> 100	> 100	46.8	> 100	11	44.7	> 100	> 100	–	–
O=Cc1ccccc1B(O)O	–	> 100	–	> 100	–	> 100	–	> 100	–	–	–	> 100	–	> 100	–	49.3	–	> 100	–	–
CN1CC[C@]2(C)c3cc(O)ccc3CC3CCCC1C32C (stereo partly specified)	–	> 100	–	> 100	–	> 100	–	> 100	–	> 100	–	> 100	–	> 100	–	–	–	–	> 100	–
COC(=O)C1CCCN1C(=O)[C@@H]1CCCN1C(=O)[C@H](Cc1c[nH]c2ccccc12)NC(=S)Nc1cc(C(F)(F)F)cc(C(F)(F)F)c1 (stereo partly specified)	1.92	4.03	3.41	12.8	1.67	3.81	2.52	6.86	–	–	2.17	6.5	1.92	4.2	3.1	11.4	2.24	4.25	6.65	2.15
CN(C)CCNC(=O)c1cccc2[nH]c(-c3cccnc3)nc12	–	> 100	–	79.6	–	74.7	–	55.6	–	53.9	–	44.1	–	44.1	–	–	–	62.8	30.6	–
CC(C)c1c(O)ccc2c1CCC1C(C)(C)CCCC21C (stereo unspecified)	–	42.7	–	34.3	–	33.2	–	32.2	–	32.8	–	–	–	31.7	–	57.2	–	31.9	–	–
COC(=O)[C@]12CC=C3O[C@@H]4OC5(CCCCC5)O[C@@H]4C3[C@@H]1C(=O)CCC2=O (stereo partly specified)	–	> 100	–	> 100	–	> 100	–	> 100	–	> 100	–	> 100	–	> 100	–	–	–	> 100	> 100	–
Cc1[nH]c(=O)n2c(C)nnc2c1C(=O)Nc1cc(Cl)cc(Cl)c1	–	> 100	–	78.7	–	53.2	–	> 100	–	64	–	79.4	–	> 100	–	–	–	–	–	–
CN(C)C=[N+]=[N-]	–	> 100	–	> 100	–	> 100	–	> 100	–	> 100	–	> 100	–	> 100	–	–	–	> 100	> 100	–
CCCC/C=C1\CCC(C)(CN(C)C)C1=O (stereo unspecified)	–	> 100	–	> 100	–	> 100	–	> 100	–	> 100	–	> 100	–	> 100	–	–	–	> 100	> 100	–
S=c1ssc(Oc2ccccc2)c1Cl	13.2	26	7.76	22.6	7.06	26.4	6.63	20.7	14.8	36.2	37	> 100	29.5	62.4	–	–	33.9	83.3	–	–
FC(F)(F)c1ccc(C#Cc2ccccc2C#Cc2ccccc2)cc1	31.4	> 100	35.1	> 100	27.6	81.2	46.1	> 100	–	–	52.5	> 100	59.2	> 100	–	–	29.2	80	83.4	29.3
COc1ccccc1C1c2cc3c(cc2OC(O)(CO)C1C(=O)O)OCO3 (stereo unspecified) (tested in a mixture with another compound)	–	> 100	–	> 100	–	> 100	–	> 100	–	> 100	–	> 100	–	> 100	–	–	–	> 100	> 100	–
C[C@]12CCC(=O)C(O)=C1CC[C@@H]1C2CC[C@]2(C)Nc3c(cnn3-c3ccccc3)CC12 (stereo partly specified)	–	> 100	–	> 100	–	> 100	–	> 100	–	–	–	> 100	–	> 100	–	–	–	> 100	> 100	–
Cc1ccc([N+](=O)[O-])cc1NC(=O)c1cccc([N+](=O)[O-])c1O	–	87.2	–	> 100	–	> 100	–	> 100	–	–	–	34	–	> 100	–	–	–	33.9	48	–
O=C(c1ccccc1)C(Br)C(Br)c1cccc([N+](=O)[O-])c1 (stereo unspecified)	1.61	3.05	1.72	3.36	1.56	3.02	1.61	3.07	1.55	3.89	4.26	14.4	3.35	12.7	–	–	3.03	8.48	–	–

SMILES	GI50 (KM12 colon) [µM]	TGI (KM12 colon) [µM]	GI50 (HCT-15 colon) [µM]	TGI (HCT-15 colon) [µM]	GI50 (U251 CNS) [µM]	TGI (U251 CNS) [µM]	GI50 (786-0 renal) [µM]	TGI (786-0 renal) [µM]	GI50 (HOP-92 NSCLC) [µM]	TGI (HOP-92 NSCLC) [µM]	GI50 (HOP-62 NSCLC) [µM]	TGI (HOP-62 NSCLC) [µM]	GI50 (OVCAR-8 ovarian) [µM]	TGI (OVCAR-8 ovarian) [µM]	GI50 (HS 578T breast) [µM]	TGI (HS 578T breast) [µM]	GI50 (SK-MEL-2 melanoma) [µM]	TGI (SK-MEL-2 melanoma) [µM]	TGI (A498 renal) [µM]	GI50 (A498 renal) [µM]
C=C1C(=O)OC2C=C(CCC(C)=O)C(C)C(OC(C)=O)CC12 (stereo unspecified)	–	30.5	–	20.1	–	31.1	–	21.4	–	12.9	–	–	–	36	–	–	–	27.9	30.1	–
O=C1CCCC(=O)N1CCc1c[nH]c2ccccc12	–	> 100	–	–	–	> 100	–	> 100	–	> 100	–	> 100	–	> 100	–	–	–	> 100	> 100	–
COc1cc(C(O)C(=O)c2nc3ccc([N+](=O)[O-])cc3[nH]c2=O)ccc1O (stereo unspecified)	–	> 100	–	> 100	–	> 100	–	> 100	–	–	–	> 100	–	> 100	–	–	–	> 100	97	–
COc1ccc(CC(=O)NCCc2ccc(OC)c(OC)c2)cc1Br	–	> 100	–	–	–	> 100	–	> 100	–	> 100	–	> 100	–	> 100	–	–	–	> 100	> 100	–
Cc1c(C(=O)CC(=O)C(=O)Nc2ccc(Cl)cc2)[n+](=O)c2ccccc2n1[O-]	–	> 100	–	> 100	–	> 100	–	> 100	–	> 100	–	–	–	> 100	–	–	–	> 100	> 100	–
Cc1cc(NS(=O)(=O)c2ccc(NC(=O)c3ccc(Cl)c4c(Nc5ccc(S(=O)(=O)N=C(N)N)cc5)c5ccccc5nc34)cc2)no1	–	> 100	–	> 100	–	38.9	–	> 100	–	–	–	97.7	–	> 100	–	–	–	–	> 100	–
COC(=O)C1=C(C(=O)OC)SC(=C(Cl)C(=S)Nc2ccccc2O)S1	0.132	> 50	17.7	> 50	12.2	30.5	0.686	10.1	40	> 50	0.354	11.2	25.3	> 50	31.6	> 50	10.3	22.2	–	–
O=C(NCCCCCCNC(=O)OCCSCCn1cc(C(=O)NC(=O)OCc2ccccc2)c(=O)[nH]c1=O)OCCSCCn1cc(C(=O)NC(=O)OCc2ccccc2)c(=O)[nH]c1=O	–	> 100	–	> 100	–	> 100	–	> 100	–	> 100	–	> 100	–	> 100	–	–	–	> 100	> 100	–
O=C(c1ccccc1)[C@@H]1C[C@H](Sc2ccccc2)c2cc(Cl)ccc2N1	–	> 100	–	> 100	–	60.1	–	33.6	–	–	–	> 100	–	66.8	–	–	–	97.6	48.1	–
c1ccc2cc3[s+]snc3cc2c1	–	> 100	–	> 100	–	> 100	–	> 100	–	–	–	> 100	–	> 100	–	–	–	> 100	> 100	–
COc1ccc(/C(=N\O)c2cc(C)c(OC)c(C)c2)cc1O	< 0.01	> 100	< 0.01	> 100	< 0.01	> 100	0.0407	> 100	0.41	> 100	0.0215	> 100	0.0352	71.6	0.0198	> 100	0.0328	> 100	–	–
O=C(O)CCC(NC(=O)c1ccccc1)C(=O)O (stereo unspecified)	–	> 100	–	> 100	–	> 100	–	> 100	–	> 100	–	> 100	–	> 100	–	–	–	> 100	> 100	–
COC(=O)NN=C1C(C)(C)C(=O)C1(C)C	–	> 100	–	–	–	> 100	–	> 100	–	> 100	–	> 100	–	> 100	–	–	–	> 100	> 100	–
CC(C)(CN1CCCCC1)C(=O)/C=C/c1ccc(Cl)cc1	–	11.2	–	9.85	–	11.7	–	9.68	–	4.64	–	–	–	5.51	–	–	–	–	10.8	–
O=C1C2C=CC(C2)C(c2ccc(O)cc2)N1O (stereo unspecified)	–	> 100	–	–	–	> 100	–	> 100	–	> 100	–	> 100	–	> 100	–	–	–	> 100	> 100	–
